# According to patent US11219619B2, “Therapeutic agent for hepatocellular carcinoma” (Eisai R&D Management Co., Ltd., priority 2018, dated 2022):
# Legend:
# [1] = system: SNU-398; assay: Proliferation of hepatocellular carcinoma cell line SNU-398 (CellTiter Glo-2.0); type: cell-based; details: Homo sapiens, 144 h; SNU-398, cultured for 6 days, 10% FBS
# Procedure: (§1) As the human hepatocellular carcinoma cell line, SNU-398, Li-7, Hep3B2.1-7, and HuH-7 were used. In this regard, SNU-398, and Hep3B2.1-7 were obtained from American Type Culture Collection (ATCC), Li-7 was obtained from Cell Resource Center for Biomedical Research, Institute of Development, Aging and Cancer, Tohoku University, and HuH-7 was obtained from JCRB Cell Bank, respectively.
# (§2) For each cell line, maintenance culture was performed by using the following medium.
# (§3) An RPMI-1640 medium (Wako Pure Chemical Industries, Ltd.) containing 10% fetal bovine serum (FBS) and penicillin/streptomycin […]
# (§4) The number of cells in each well after the culture was calculated by measuring the intracellular ATP level with the emission intensity using CellTiter Glo-2.0 (Promega Corporation, catalog number: G9243).
# (§5) CellTiter Glo-2.0 was added in an amount of 50 μL into each well, and the mixture was mixed for 10 minutes with a plate mixer. After that, the mixture was allowed to react at room temperature for 10 minutes, and then the luminescence was measured with Multilabel Reader (ARVO X4, PerkinElmer, Inc.) The luminescence value ratio in the presence of a compound A was determined, assuming that the luminescence value in a case where Compound A had not added was set to 100% and the luminescence value in a well where cells had not been present was set to 0%. […]
# [2] = system: Hep3B2.1-7; assay: Proliferation of hepatocellular carcinoma cell line Hep3B2.1-7 (CellTiter Glo-2.0); type: cell-based; details: Homo sapiens, 144 h; Hep3B2.1-7, cultured for 6 days, 10% FBS
# Procedure: as §1, §2
# An EMEM medium (Wako Pure Chemical Industries, Ltd.) containing 10% FBS and penicillin/streptomycin […]
# as §4, §5
# [3] = system: HuH-7; assay: Proliferation of hepatocellular carcinoma cell line HuH-7 (CellTiter Glo-2.0); type: cell-based; details: Homo sapiens, 144 h; HuH-7, cultured for 6 days, 10% FBS
# Procedure: as §1, §2
# A DMEM-low glucose medium (Wako Pure Chemical Industries, Ltd.) containing 10% FBS and penicillin/streptomycin […]
# as §4, §5
# [4] = system: Li-7; assay: Proliferation of hepatocellular carcinoma cell line Li-7 (CellTiter Glo-2.0); type: cell-based; details: Homo sapiens, 144 h; Li-7, cultured for 6 days, 10% FBS
# Procedure: as §1, §2, §3, §4, §5
# [5] = system: Human-derived hepatocellular carcinoma cell line HuH-7; assay: Antitumor action against human hepatocellular carcinoma cell line HuH-7 transplanted subcutaneously in nude mice; type: in vivo; details: HuH-7 xenograft
# Procedure: (§6) Five nude mice (CAnN.Cg-Foxnlnu/CrlCrlj, female, CHARLES RIVER LABORATORIES JAPAN, INC.) were used in each group, and the antitumor effect in a case where compound A was administered was evaluated.
# (§7) Human-derived hepatocellular carcinoma cell line HuH-7 (obtained from JCRB Cell Bank) cells were suspended in a DMEM medium (Wako Pure Chemical Industries, Ltd.) containing 10% bovine serum so that the concentration of the cells was 8.0×10^7 cells/mL. Into the suspension, Matrigel™ Matrix (Becton, Dickinson and Company, Japan) in the same volume as that of the suspension was added, and the obtained mixture was sufficiently mixed. The mixture in an amount of 0.1 mL was transplanted into the subcutaneous part in the right flank of each mouse, and the mouse was subjected to the antitumor effect evaluation.
# (§8) On 11 days after the transplantation, the longest diameter and the short axis of the tumor were measured with an electronic digital caliper (Digimatic™ Caliper, Mitutoyo Corporation). The mice were divided into groups so that the average values of the tumor volumes in the respective groups were nearly equal to each other. In addition, the tumor volume was calculated in accordance with the following equation. Tumor volume (mm^3)=longest diameter (mm)×short axis (mm)×short axis (mm)/2
# Compound A was dissolved in purified water so that the concentration of compound A was 2.5 mg/mL.
# (§9) Compound A was administered to each of the mice in the respective groups at a dose of 50 mg/kg once daily for 5 days. After that, compound A was withdrawn for 2 days, and then administered orally for 3 days. In this regard, the volume to be administered was set to 20 mL/kg, and to the control group, purified water in the same volume was administered.
# [6] = system: Human-derived hepatocellular carcinoma cell line Hep3B2.1-7; assay: Antitumor action against human hepatocellular carcinoma cell line Hep3B2.1-7 transplanted subcutaneously in nude mice; type: in vivo; details: Hep3B2.1-7 xenograft
# Procedure: as §6
# as §7, with “Hep3B2.1-7” for “HuH-7”, “ATCC)” for “JCRB Cell Bank)”, “Hank's Balanced Salt Solution (HBSS)” for “DMEM medium (Wako Pure Chemical Industries, Ltd.) containing 10% bovine serum”, “4×10^7” for “8.0×10^7”
# as §8, with “19” for “11”, “substantially” for “nearly”
# Compound A was dissolved in purified water so that the concentration of compound A was 5 mg/mL.
# as §9, with “100” for “50”, “4” for “3”
# [7] = system: Human-derived hepatocellular carcinoma cell line SNU-398; assay: Antitumor action against human hepatocellular carcinoma cell line SNU-398 transplanted subcutaneously in nude mice; type: in vivo; details: SNU-398 xenograft
# Procedure: as §6
# as §7, with “SNU-398” for “HuH-7”, “ATCC)” for “JCRB Cell Bank)”, “HBSS” for “DMEM medium (Wako Pure Chemical Industries, Ltd.) containing 10% bovine serum”, “5×10^7” for “8.0×10^7”
# as §8, with “9” for “11”
# Compound A was dissolved in purified water so that the concentration of compound A was […] or 2.5 mg/mL.
# Compound A was administered orally to each of the mice in the respective groups at a dose of 25 mg/kg or 50 mg/kg once daily for 11 days. In this regard, the volume to be administered was set to 20 mL/kg. The control group was untreated.
# [8] = Day 0 (baseline), 50 mg/kg group
smiles,measurement,setting,value
"CNC(=O)n1ccc2cc(Oc3ccnc(NC(=O)c4ccc(C5CCN(CCO)CC5)cc4)c3)c(OCCOC)cc21 [Compound A, 5-((2-(4-(1-(2-hydroxyethyl)piperidin-4-yl)benzamide)pyridin-4-yl)oxy)-6-(2-methoxyethoxy)-N-methyl-1H-indole-1-carboxamide sesquisuccinate]",IC50,[1],26 nM
same,IC50,[2],77 nM
same,IC50,[3],249 nM
same,IC50,[4],63 nM
same,Tumor volume,[5]; [8],148.1 mm^3
same,Tumor volume,"[5]; Day 3, 50 mg/kg once daily, oral",409.2 mm^3
same,Tumor volume,"[5]; Day 7, 50 mg/kg once daily for 5 days, withdrawn 2 days",939.9 mm^3
same,Tumor volume,"[5]; Day 10, 50 mg/kg once daily for 5 days, withdrawn 2 days, then 3 days, oral",1400.9 mm^3
same,Tumor volume,"[6]; Day 0 (baseline), 100 mg/kg group",417.4 mm^3
same,Tumor volume,"[6]; Day 3, 100 mg/kg once daily, oral",504.0 mm^3
same,Tumor volume,"[6]; Day 7, 100 mg/kg once daily for 5 days, withdrawn 2 days",630.4 mm^3
same,Tumor volume,"[6]; Day 11, 100 mg/kg once daily for 5 days, withdrawn 2 days, then 4 days, oral",862.3 mm^3
same,Increase in the tumor volume,"[7]; 25 mg/kg or 50 mg/kg once daily for 11 days, oral",suppressed in a dose-dependent manner
same,Tumor volume,"[7]; Day 0 (baseline), 25 mg/kg group",154.5 mm^3
same,Tumor volume,[7]; [8],153.9 mm^3
same,Tumor volume,"[7]; Day 4, 25 mg/kg once daily, oral",516.4 mm^3
same,Tumor volume,"[7]; Day 4, 50 mg/kg once daily, oral",443.2 mm^3
same,Tumor volume,"[7]; Day 7, 25 mg/kg once daily, oral",942.2 mm^3
same,Tumor volume,"[7]; Day 7, 50 mg/kg once daily, oral",779.0 mm^3
same,Tumor volume,"[7]; Day 11, 25 mg/kg once daily for 11 days, oral",1280.1 mm^3
same,Tumor volume,"[7]; Day 11, 50 mg/kg once daily for 11 days, oral",1066.1 mm^3
